Measured values from patent US11897862B2 (Gilead Sciences, Inc., priority 2022, dated 2024).

Assays:
IKZF1 = target: T1, IKZF1 (Homo sapiens, UniProt Q13422+Q96SW2); experiment: HEK293 HiBiT in vitro degradation of IKZF1; type: cell-based; details: for DC50: 18-24 hr incubation, normalized to DMSO control, read-out: IKZF1 EC50; for Dmax: HEK293, HEK293 HiBiT
T1 construct: expressed in transfected cells
In short: (§1)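 Dox-inducible ([…] final, overnight) HEK293 Flp-In T-REx, single-copy target-HiBiT C-terminal fusion; compound serial dilution, 18-24 h, 37 °C; lytic Nano-Glo luminescence; EC50, Dmax.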

IKZF2 = IKZF2 (Homo sapiens, UniProt Q96SW2+Q9UKS7); experiment: HEK293 HiBiT in vitro degradation of IKZF2; type: cell-based; design: expressed in transfected cells; details: for Dmax: HEK293, HEK293 HiBiT; for Dmax / IKZF2 Dmax: maximum degradation at the highest concentration tested; for DC50 / IKZF2 Dmax: HEK293 HiBiT; for DC50: 18-24 hr incubation, normalized to DMSO control, read-out: IKZF2 EC50
Chain of IKZF2 (Q9UKS7 1-500 isoform Q9UKS7-2): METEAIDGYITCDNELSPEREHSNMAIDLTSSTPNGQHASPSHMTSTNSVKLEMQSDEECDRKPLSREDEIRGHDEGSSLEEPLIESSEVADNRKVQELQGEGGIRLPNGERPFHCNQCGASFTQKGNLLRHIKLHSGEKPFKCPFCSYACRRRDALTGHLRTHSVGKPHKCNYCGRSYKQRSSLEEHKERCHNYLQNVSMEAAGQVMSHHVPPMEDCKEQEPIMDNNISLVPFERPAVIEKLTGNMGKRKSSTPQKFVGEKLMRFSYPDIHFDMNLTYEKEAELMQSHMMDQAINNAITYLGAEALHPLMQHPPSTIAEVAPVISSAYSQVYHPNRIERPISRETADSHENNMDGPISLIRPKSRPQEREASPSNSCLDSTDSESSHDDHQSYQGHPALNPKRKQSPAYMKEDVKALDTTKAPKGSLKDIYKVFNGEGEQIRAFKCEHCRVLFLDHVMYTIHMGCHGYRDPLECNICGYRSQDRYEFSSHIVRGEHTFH
Chain of IKZF2 (Q96SW2 whole entry): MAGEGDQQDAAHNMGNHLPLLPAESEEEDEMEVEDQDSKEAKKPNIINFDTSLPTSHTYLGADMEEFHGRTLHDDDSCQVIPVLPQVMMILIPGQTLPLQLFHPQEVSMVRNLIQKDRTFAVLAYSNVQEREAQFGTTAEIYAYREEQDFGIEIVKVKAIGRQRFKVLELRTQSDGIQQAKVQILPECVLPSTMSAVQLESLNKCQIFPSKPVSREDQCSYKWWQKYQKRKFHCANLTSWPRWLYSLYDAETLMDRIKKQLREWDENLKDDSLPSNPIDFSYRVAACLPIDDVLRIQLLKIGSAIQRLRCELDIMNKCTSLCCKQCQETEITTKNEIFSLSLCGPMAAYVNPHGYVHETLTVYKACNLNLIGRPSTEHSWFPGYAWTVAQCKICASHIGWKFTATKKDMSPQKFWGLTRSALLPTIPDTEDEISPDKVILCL
Chain of IKZF2 (Q16531 whole entry partner): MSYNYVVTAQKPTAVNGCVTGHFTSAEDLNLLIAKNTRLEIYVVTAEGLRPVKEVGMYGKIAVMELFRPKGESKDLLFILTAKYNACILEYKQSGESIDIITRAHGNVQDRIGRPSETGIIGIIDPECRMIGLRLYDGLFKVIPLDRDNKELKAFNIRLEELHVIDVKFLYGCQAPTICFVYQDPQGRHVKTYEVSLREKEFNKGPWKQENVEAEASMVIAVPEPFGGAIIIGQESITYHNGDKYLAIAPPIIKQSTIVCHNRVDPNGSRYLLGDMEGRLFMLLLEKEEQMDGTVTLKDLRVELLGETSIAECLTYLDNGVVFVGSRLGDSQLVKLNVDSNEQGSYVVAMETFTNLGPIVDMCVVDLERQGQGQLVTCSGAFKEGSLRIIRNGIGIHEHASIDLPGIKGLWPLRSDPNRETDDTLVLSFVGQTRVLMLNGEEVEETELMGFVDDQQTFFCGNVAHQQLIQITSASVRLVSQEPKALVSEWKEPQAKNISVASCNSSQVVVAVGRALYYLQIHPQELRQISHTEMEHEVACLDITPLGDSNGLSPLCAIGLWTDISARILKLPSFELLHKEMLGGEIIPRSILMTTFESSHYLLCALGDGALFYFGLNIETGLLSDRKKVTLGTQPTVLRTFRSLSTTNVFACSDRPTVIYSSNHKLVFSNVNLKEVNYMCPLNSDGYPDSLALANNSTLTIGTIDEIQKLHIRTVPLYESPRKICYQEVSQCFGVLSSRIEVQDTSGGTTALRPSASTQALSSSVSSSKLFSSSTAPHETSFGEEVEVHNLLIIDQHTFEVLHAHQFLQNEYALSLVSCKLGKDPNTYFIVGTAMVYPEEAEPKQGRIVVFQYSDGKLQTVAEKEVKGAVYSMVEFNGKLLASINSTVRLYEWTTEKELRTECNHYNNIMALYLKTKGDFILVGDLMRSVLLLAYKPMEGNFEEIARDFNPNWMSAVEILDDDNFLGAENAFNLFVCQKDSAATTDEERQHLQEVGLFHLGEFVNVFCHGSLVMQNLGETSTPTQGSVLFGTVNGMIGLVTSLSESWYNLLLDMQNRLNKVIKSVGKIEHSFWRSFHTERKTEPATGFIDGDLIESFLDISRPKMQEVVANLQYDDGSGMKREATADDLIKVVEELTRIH
In short: as §1

[1] = maximum degradation at the highest concentration tested

T1 sequence (Q13422 whole entry): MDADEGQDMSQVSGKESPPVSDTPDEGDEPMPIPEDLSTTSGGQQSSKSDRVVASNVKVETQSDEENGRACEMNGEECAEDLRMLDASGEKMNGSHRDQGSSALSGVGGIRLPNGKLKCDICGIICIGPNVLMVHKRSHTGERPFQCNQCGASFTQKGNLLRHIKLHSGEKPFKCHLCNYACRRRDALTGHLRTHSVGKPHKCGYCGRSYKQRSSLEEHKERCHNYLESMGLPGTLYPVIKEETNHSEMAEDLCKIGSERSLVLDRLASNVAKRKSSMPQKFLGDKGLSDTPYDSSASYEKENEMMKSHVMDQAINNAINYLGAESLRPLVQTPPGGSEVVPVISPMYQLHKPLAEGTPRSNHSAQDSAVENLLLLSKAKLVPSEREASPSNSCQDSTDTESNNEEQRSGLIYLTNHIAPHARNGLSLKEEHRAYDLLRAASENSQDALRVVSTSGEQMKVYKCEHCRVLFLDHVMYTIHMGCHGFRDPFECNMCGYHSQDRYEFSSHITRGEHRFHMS
T1 sequence (Q96SW2 whole entry): as the sequence (Q96SW2 whole entry) above
T1 sequence (Q16531 whole entry partner): as the sequence (Q16531 whole entry partner) above

SMILES	DC50 (IKZF1; HEK293 HiBiT) [nM]	Dmax (IKZF2) [%]	DC50 (IKZF2) [nM]	Dmax (IKZF1; [1]) [%]	IKZF2 Dmax (IKZF2) [%]	IKZF1 Dmax (IKZF1; HEK293 HiBiT, maximum degradation at the highest concentration tested) [%]
O=C1CCC(N2Cc3cc(C[C@H]4CCCC[C@@H]4NC4C5CCCC4CC5)ccc3C2=O)C(=O)N1 (stereo partly shown) [Example 199]	> 10000	95	10			
O=C1CCC(N2Cc3cc(C[C@H]4CCCC[C@@H]4NCc4ccccc4)ccc3C2=O)C(=O)N1 (single isomer, unassigned) [Example 120]	100		33			
CC(N[C@H]1CCCC[C@@H]1Cc1ccc2c(c1)CN(C1CCC(=O)NC1=O)C2=O)C1CCS(=O)(=O)CC1 (single isomer, unassigned) [Example 370]	117	95	10	53		
CC(C)CC(C)N[C@H]1CCCC[C@@H]1Cc1ccc2c(c1)CN(C1CCC(=O)NC1=O)C2=O (stereo partly shown) [Example 185]	> 1000	98	6			
O=C1CCC(N2Cc3cc(C[C@H]4CCCC[C@@H]4NCc4cc(Cl)cc(Cl)c4)ccc3C2=O)C(=O)N1 (stereo partly drawn) [Example 13, 3-(5-(((1R,2S)-2-((3,5-dichlorobenzyl)amino)cyclohexyl)methyl)-1-oxoisoindolin-2-yl)piperidine-2,6-dione]	> 1000	68	79			
O=C1CCC(N2Cc3cc(C[C@H]4CCCC[C@@H]4NC4CC5CCC4O5)ccc3C2=O)C(=O)N1 (stereo partly shown) [Example 193]	> 1000	96	7			
O=C1CCC(N2Cc3c(ccc(C[C@H]4CCCC[C@@H]4NC4CC5CCCC5C4)c3F)C2=O)C(=O)N1 (stereo partly shown) [Example 141]	58	98	2	53		
O=C1CC[C@H](N2Cc3cc(C[C@H]4CCCC[C@@H]4NC4CCC(F)(F)CC4)cc(F)c3C2=O)C(=O)N1 [Example 347]	> 1000	75	38			
O=C1CCC(N2Cc3cc(C[C@H]4CCCC[C@@H]4NCc4ccccc4)ccc3C2=O)C(=O)N1 (single isomer, unassigned) [Example 98]	> 1000		41			
O=C1CCC(N2Cc3cc(C[C@H]4CCCC[C@@H]4NC4CCOc5ccccc54)ccc3C2=O)C(=O)N1 (stereo partly shown) [Example 175]	189	96	24	46		
CC(N[C@H]1CCCO[C@@H]1Cc1ccc2c(c1F)CN(C1CCC(=O)NC1=O)C2=O)C1CCC1 (single isomer, unassigned) [Example 248]	> 1000		21		92	
O=C1CCC(N2Cc3cc(C[C@H]4CCCC[C@@H]4NCCC(F)(F)F)ccc3C2=O)C(=O)N1 (stereo partly shown) [Example 104]	75	92	16	37		
CC(N[C@H]1CCCC[C@@H]1Cc1ccc2c(c1)CN(C1CCC(=O)NC1=O)C2=O)C1(F)CC1 (single isomer, unassigned) [Example 225]	> 500		11		94	
O=C1CCC(N2Cc3cc(C[C@H]4CCCC[C@@H]4NC4CCCOC4)ccc3C2=O)C(=O)N1 (single isomer, unassigned) [Example 260]	> 1000	96	5			
CCC(N[C@H]1CCCC[C@@H]1Cc1ccc2c(c1)CN(C1CCC(=O)NC1=O)C2=O)C1CC1 (single isomer, unassigned) [Example 232]	> 1000	93	21			
O=C1CCC(N2Cc3cc(C[C@H]4CC(CO)CC[C@@H]4NC4CCCCC4)ccc3C2=O)C(=O)N1 (single isomer, unassigned) [Example 382]	> 1000		629		48	
CCC(C)N[C@H]1CCCC[C@@H]1Cc1ccc2c(c1F)CN(C1CCC(=O)NC1=O)C2=O (stereo partly shown) [Example 307]	111	96	1	40		
CC(N[C@H]1CCCC[C@@H]1Cc1ccc2c(c1)CN(C1CCC(=O)NC1=O)C2=O)C1CCCC1 (stereo partly shown) [Example 202]	> 1000		8		95	
O=C1CCC(N2Cc3c(ccc(C[C@H]4OCCC[C@@H]4NC4CCCOC4)c3F)C2=O)C(=O)N1 (single isomer, unassigned) [Example 262]	> 1000	85	72			
O=C1CCC(N2Cc3cc(C[C@H]4CCCC[C@@H]4NCC4CC4)ccc3C2=O)C(=O)N1 (stereo partly drawn) [Example 8, 3-(5-(((1R,2S)-2-((cyclopropylmethyl)amino)cyclohexyl)methyl)-1-oxoisoindolin-2-yl)piperidine-2,6-dione]	229	94	47	34		
CN(C1CCC(F)(F)CC1)[C@H]1CCCC[C@@H]1Cc1ccc2c(c1)CN(C1CCC(=O)NC1=O)C2=O (stereo partly drawn) [Example 123, 3-(5-(((1R,2S)-2-((4,4-difluorocyclohexyl)(methyl)amino)cyclohexyl)methyl)-1-oxoisoindolin-2-yl)piperidine-2,6-dione]	> 1000	88	26			
N#CCC1CCC(N[C@H]2CCCC[C@@H]2Cc2ccc3c(c2)CN(C2CCC(=O)NC2=O)C3=O)CC1 (single isomer, unassigned) [Example 269]	266	96	3	40		
CC(C)OC1CCC(N[C@H]2CCCC[C@@H]2Cc2ccc3c(c2)CN(C2CCC(=O)NC2=O)C3=O)CC1 (single isomer, unassigned) [Example 168]	246		3		97	39
O=C1CCC(N2Cc3c(ccc(C[C@H]4OCCC[C@@H]4NCC4CCC(F)(F)CC4)c3F)C2=O)C(=O)N1 (stereo partly shown) [Example 149]	45	71	46	36		
[2H]C1(N[C@H]2CCCC[C@@H]2Cc2ccc3c(c2F)CN(C2CCC(=O)NC2=O)C3=O)CCCCC1 (stereo partly shown) [Example 211]	54	98	1	37		
CC(COc1ccccc1)N[C@H]1CCCC[C@@H]1Cc1ccc2c(c1)CN(C1CCC(=O)NC1=O)C2=O (stereo partly shown) [Example 77]	> 1000	90	11			
O=C1CCC(N2Cc3cc(C[C@H]4CCCC[C@@H]4NCc4cncs4)ccc3C2=O)C(=O)N1 (stereo partly drawn) [Example 6, 3-(1-oxo-5-(((1R,2S)-2-((thiazol-5-ylmethyl)amino)cyclohexyl)methyl)isoindolin-2-yl)piperidine-2,6-dione]	122	90	30	32		
O=C1CCC(N2Cc3cc(C[C@H]4CCCC[C@@H]4NC4CC5CC(C5)C4)ccc3C2=O)C(=O)N1 (stereo partly drawn) [Example 29, 3-(5-(((1R,2S)-2-(bicyclo[3.1.1]heptan-3-ylamino)cyclohexyl)methyl)-1-oxoisoindolin-2-yl)piperidine-2,6-dione]	574	96	5	39		
O=C1CCC(N2Cc3c(ccc(O[C@H]4CCCC[C@@H]4NC4CCC(F)(F)CC4)c3F)C2=O)C(=O)N1 (stereo partly shown) [Reference Compound B-1, reference compound]	> 1000	97	6			
CC1(C)COCCC1N[C@H]1CCCC[C@@H]1Cc1ccc2c(c1)CN(C1CCC(=O)NC1=O)C2=O (stereo partly shown) [Example 192]	> 10000	94	6			
